Consider two substances from paper PMC9781827, “Isolation and Identification of Anti-Inflammatory Peptide from Goose Blood Hydrolysate to Ameliorate LPS-Mediated Inflammation and Oxidative Stress in RAW264.7 Macrophages” (Molecules, 2022).

Ends that are not written are not given here.

In series [1] the target is T1, pepsin (Sus scrofa, UniProt P00791).
T1 construct: purchased Shanghai Aladdin Biochemical Technology Co., Ltd; host or cells: porcine gastric mucosa
The series can be described thus: Simulated gastric digestion with pepsin, products analysed by LC–MS/MS. As to conditions: 37 °C. The series is classed as in vitro ADME, porcine. How it is done:
(§1) The fractionation of the peak with the highest anti-inflammatory activity obtained from RP-LC was further identified by LC-MS/MS equipped with a reversed phase BEH C18 analytical column (1.7 μm, 2.1 × 100 mm, Waters Inc., Milford, MA, USA). The fraction of peptide with the highest anti-inflammatory activity obtained from RP-LC was further Identified by LC-MS/MS. Eluent A: 0.065% TFA in 2% acetonitrile; Eluent B: 0.050% TFA in 80% acetonitrile. The gradient elution parameters: 0–30 min, 100% eluent A; 30–60 min, 30–80% eluent B; 60–80 min, 100% eluent A. The above flow rates were 0.5 mL/min. The fractions were detected at 280 nm by an ultraviolet detector. The flow entered directly into the MS/MS system (MALDI SYNAPT Q-TOF MS, Waters, Inc. Milford, MA, USA) for multiple reaction measurement. The recording mass range of precursor ions was m/z 50–4000. Nitrogen was used as a collision gas. Capillary voltage was set at 3.5 kV and cone voltage at 20 V. Source block temperature was set at 100 °C and desolvation temperature at 250 °C. Collision energy and detector voltage were 15 and 1600 V, respectively. The desolvation and cone gas flow were 500 and 50 L/h, respectively. The N-terminal fragment ion series (B series) and the C-terminal fragment ion series (Y series) were analysed. The amino acid sequence of the peptide was obtained by comprehensive analysis of B and Y ion series through Mass Lynx V4.1 operating system.
(§2) The stability of GBP in response to pepsin and trypsin in the simulation of GI digestion in vitro was examined based on Xie et al.. First, 2 g of NaCl and 3.2 g of pepsin from porcine gastric mucosa (Purity: 1:3000, CAS: 9001-75-6, Shanghai Aladdin Biochemical Technology Co., Ltd., Shanghai, China) were added to 800 mL of ultrapure water. The pH of the solution was adjusted with 6 mol/L hydrochloric acid to 3.0, and the volume was adjusted with ultrapure water to 1 L (as simulated gastric juice). […]

For series [2], the system named is T2, pepsin.
T2 construct: purchased Shanghai Aladdin Biochemical Technology Co., Ltd; host or cells: porcine gastric mucosa
The series is described as above. The series is classed as in vitro ADME, porcine. The note with it: pig, simulated gastric fluid; simulated gastric juice (pepsin from porcine gastric mucosa, NaCl), pH 3.0, 200 μg/mL peptide, 2 h, 37 °C; LC–MS/MS; read-out: share of IVYPWTQR split into smaller fragments after pepsin treatment. How it is done:
as §1, §2

The target of the next series is T3, trypsin (Sus scrofa, UniProt P00761).
T3 construct: purchased Shanghai Aladdin Biochemical Technology Co., Ltd; host or cells: porcine pancreas
The series is described as follows: Simulated intestinal digestion with trypsin. It counts as in vitro ADME. As to conditions: simulated intestinal fluid (trypsin from porcine pancreas, bile salt), pH 7.6, 2 h, 37 °C, after pepsin step; judged by unchanged cytokine levels. The protocol: The stability of GBP in response to pepsin and trypsin in the simulation of GI digestion in vitro was examined based on Xie et al.. First, 2 g of NaCl and 3.2 g of pepsin from porcine gastric mucosa (Purity: 1:3000, CAS: 9001-75-6, Shanghai Aladdin Biochemical Technology Co., Ltd., Shanghai, China) were added to 800 mL of ultrapure water. The pH of the solution was adjusted with 6 mol/L hydrochloric acid to 3.0, and the volume was adjusted with ultrapure water to 1 L (as simulated gastric juice). Then, 0.68 g of potassium dihydrogen phosphate and 7.7 mL sodium hydroxide solution (0.2 mol/L) were dissolved in 70 mL of ultrapure water; 1 g of trypsin from porcine pancreas (Purity: ≥250 units/mg, CAS: […], Shanghai Aladdin Biochemical Technology Co., Ltd., Shanghai, China) and 6 g of bile salt were added and dissolved. The above solution was mixed and supplemented with ultrapure water to 1 L. Finally, the pH of the mixed solution was adjusted to 7.6 with sodium hydroxide solution (0.2 mol/L) (as simulated intestinal fluid). The 200 μg/mL peptide solution was adjusted to a pH of 3.0 with a 1 mol/L HCl solution, and 5 mL of simulated gastric juice was added to the solution and the reaction was carried out for 2 h in 37 °C water bath. Then, the simulated gastric digestion was terminated by being heated at 100 °C for 10 min. […]

T1 sequence (P00791 60-385): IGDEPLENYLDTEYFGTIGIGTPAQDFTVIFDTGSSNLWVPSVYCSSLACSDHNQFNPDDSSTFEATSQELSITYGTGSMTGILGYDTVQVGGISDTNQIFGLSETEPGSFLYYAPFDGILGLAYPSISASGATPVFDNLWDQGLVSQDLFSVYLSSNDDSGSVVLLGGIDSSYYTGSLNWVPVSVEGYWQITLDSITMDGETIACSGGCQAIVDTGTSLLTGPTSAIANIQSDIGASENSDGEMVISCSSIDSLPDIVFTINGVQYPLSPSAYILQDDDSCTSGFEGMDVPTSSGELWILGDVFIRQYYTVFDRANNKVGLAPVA
T3 sequence (P00761 9-231): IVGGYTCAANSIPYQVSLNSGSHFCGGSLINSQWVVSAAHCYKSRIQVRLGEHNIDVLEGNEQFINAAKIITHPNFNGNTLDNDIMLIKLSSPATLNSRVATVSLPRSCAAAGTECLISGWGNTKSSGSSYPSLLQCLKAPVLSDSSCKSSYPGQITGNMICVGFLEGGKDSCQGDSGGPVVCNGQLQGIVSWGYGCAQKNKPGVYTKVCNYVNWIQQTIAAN

In the case of “YPWTQR [fragment of IVYPWTQR after pepsin treatment]”, the “share of fragment formed from IVYPWTQR after pepsin treatment” value on pepsin [1] (simulated gastric juice (pepsin), pH 3.0, 200 μg/mL peptide, 2 h, LC–MS/MS) is reported as 25.19%.
Turning to “IVYPWTQR [IVYPWTQR, IIe-Val-Tyr-Pro-Trp-Thr-Gln-Arg]”, the metabolised at 2 h, 200 μg/mL in the series on pepsin [2] was roughly 45.2%. Moreover, the stability against pepsin result on pepsin [1] (simulated gastric digestion, pepsin, pH 3.0, 2 h) is reported as “sensitive to pepsin”. The stability against trypsin result at trypsin was “robustly resists trypsin”.
